Data on three molecules can be found in paper PMC6273328, “Simultaneous Determination of Purpurin, Munjistin and Mollugin in Rat Plasma by Ultra High Performance Liquid Chromatography-Tandem Mass Spectrometry: Application to a Pharmacokinetic Study after Oral Administration of Rubia cordifolia L. Extract” (Molecules, 2016).

Read-outs that look alike come from different tables or passages of the source.

A short description of data set [1]: Pharmacokinetic study in rats after oral administration of R. cordifolia extract (UHPLC-MS/MS of plasma). The format is in vivo, Sprague-Dawley (SD) rats. The settings on record: male, Sprague-Dawley. The protocol: The UHPLC-MS/MS method described herein was applied to investigate the pharmacokinetics of the three constituents in R. cordifolia after a single oral administration of 0.82 g/kg of extract (equivalent to 6.3 μg/g for mollugin, 1.3 μg/g for munjistin, and 0.68 μg/g for purpurin) to twelve rats. We determined the oral dosage for the rats corresponding to the human dosage recommended in the Chinese Pharmacopoeia (2015 edition). The human dosage of R. cordifolia in the Chinese Pharmacopoeia is 10 g/day, so we calculated the final oral dosage as 0.82 g/kg in rats based on the Meeh-Rubn method.
Twelve male Sprague-Dawley (SD) rats (body weight 220 ± 20 g) were obtained from the experimental animal center of Harbin Medical University and adapted to a constant-temperature (25 °C) room. The animal handling procedures were approved by the institutional ethics committee and conformed to the principles of the International Guide for the Care and Use of Laboratory Animals. Before the experiment, the rats were fasted for 12 h and had access to water during the research period. Blood (0.4 mL) was collected from the orbital venous plexus at several specific time points (0, 0.33, 0.67, 1, 1.3, 1.67, 2, 2.5, 3, 4, 6, 8, 12 and 24 h) after the oral administration of R. cordifolia (0.82 g/kg). After centrifugation at 12000 rpm for 5 min, the plasma was collected immediately and stored at −20 °C until sample analysis.
Before the experiment, the plasma samples were thawed naturally at room temperature. As a liquid-liquid extraction method, 100 μL of methanol and 50 μL of I.S. (2000 ng/mL) were added to a rat plasma sample (100 μL), and then the content was mixed by a vortex mixer for 30 s. After this step, a 3 mL aliquot of ethyl acetate (extraction agent) was accurately added and the mixture vortexed for 60 s. Then the samples were put into a centrifuge. The organic supernatant was pipetted into clean glass tubes individually after centrifugation 4000 rpm for 5 min. The upper organic layer was removed and evaporated to dryness at 40 °C under a stream of nitrogen. The residue was then reconstituted with 100 μL of mobile phase (5 mM ammonium acetate in water/methanol, 10:90, v/v), vortexed for 30 s and filtered by a 0.22 μm membrane. A 5 μL aliquot of the solution was injected into the UHPLC-MS/MS system for analysis.
Noncompartmental methods were applied to calculate the following pharmacokinetic parameters. The peak plasma concentration (Cmax) and the time of maximum plasma concentration (Tmax) were observed directly from the measured data. The elimination rate constant (Ke) was calculated using the linear regression of the terminal points in a semi-log plot of the plasma concentration against time. The elimination half-life (t1/2) was calculated using the formula: t1/2 = 0.693/Ke
The area under the peak plasma concentration-time curve (AUC0→t) to the last measurable plasma concentration (Ct) was estimated using the linear trapezoidal rule. The area under the plasma concentration-time curve to time infinity (AUC0→∞) was calculated as following: AUC0→∞ = AUC0-t + Ct/Ke

Data set [2] in a line: Stability of the analytes in rat plasma (QC samples). The format is in vitro ADME. The settings on record: n = 6; for Stability (% RE) Post-Preparative: extracted plasma samples, 12 h at 4 °C after preparation; for Stability (% RE) Short-Term / Stability (% RE) Long-Term / Stability (% RE) Three Freeze-Thaw: rat plasma; for Stability (% RE) Short-Term: 4 h at ambient temperature; for Stability (% RE) Long-Term: storage for 2 weeks at −20 °C; for Stability (% RE) Three Freeze-Thaw: three freeze (−20 °C) and thaw cycles. The protocol:
To study the stability, QC samples of the three analytes at three QC levels (LQC, MQC, and HQC) were added into drug-free plasma samples and each levels contained six replicates. Four different manipulations were designed to assess the stability involving short-term stability (storage for 4 h at ambient temperature), long-term stability (storage for 2 weeks at −20 °C), freeze-thaw stability (three freeze at −20 °C and thaw cycles), and post-preparative stability (storage for 12 h after sample preparation at 4 °C). A series of concentrations of stability testing QC samples was obtained by the calibration curve which was established from freshly prepared standard samples.

The mark [3] stands for this setting: medium QC (26.4/51.5/245 ng/mL).
[4] abbreviates: high QC (211/412/1960 ng/mL purpurin/munjistin/mollugin).
Where [5] appears, read: low QC (0.528/1.03/4.90 ng/mL purpurin/munjistin/mollugin).
The mark [6] stands for this setting: medium QC (26.4/51.5/245 ng/mL purpurin/munjistin/mollugin).

The Cmax is the peak of the concentration-time curve. Usually Tmax stands for the time at which the peak concentration occurs.

For `COC(=O)c1c2c(c3ccccc3c1O)OC(C)(C)C=C2` [Mollugin, mollugin], the half-life in data set [1] (rat plasma, single oral 0.82 g/kg R. cordifolia extract, mean ± SD, n = 12, non-compartment model, read-out: t1/2 (converted)) is 9.02 ± 2.14 h. The AUC(0-t) in data set [1] (rat plasma, single oral 0.82 g/kg R. cordifolia extract, mean ± SD, n = 12, read-out: AUC0→t) is 232 ± 57.6 ng·h/mL. Moreover, the AUC(0-inf) in data set [1] (rat plasma, single oral 0.82 g/kg R. cordifolia extract, mean ± SD, n = 12, read-out: AUC0→∞) was determined as 296 ± 40.9 ng·h/mL. Also, in data set [1] (rat plasma, single oral 0.82 g/kg R. cordifolia extract, mean ± SD, n = 12, read-out: Cmax), the highest concentration (Cmax) was determined as 52.1 ± 6.71 ng/mL. Also, the time to peak (Tmax) in data set [1] (rat plasma, single oral 0.82 g/kg R. cordifolia extract, mean ± SD, n = 12, read-out: Tmax) came to 1.99 ± 0.21 h. Also, the “Stability (% RE) Post-Preparative” value in data set [2] (high QC (211/412/1960 ng/mL)) is on record as 14.38 % RE; in data set [2] (low QC (0.528/1.03/4.90 ng/mL)) it was 11.15 % RE; in data set [2] (setting [3]), 0.65 % RE. Moreover, the “Stability (% RE) Short-Term” value in data set [2] (high QC (211/412/1960 ng/mL)) was −8.69 % RE; in data set [2] (low QC (0.528/1.03/4.90 ng/mL)), 9.90 % RE; in data set [2] (setting [3]) it was −4.35 % RE. For the same molecule, the results for the “Stability (% RE) Long-Term” value in data set [2] (high QC (211/412/1960 ng/mL)), in data set [2] (low QC (0.528/1.03/4.90 ng/mL)) and in data set [2] (setting [3]) were −8.55 % RE, 4.57 % RE and −0.17 % RE, respectively. The “Stability (% RE) Three Freeze-Thaw” value in data set [2] (setting [4]) is recorded as −13.17 % RE; in data set [2] (setting [5]), 10.26 % RE; in data set [2] (setting [6]), 8.78 % RE.

Consider `O=C1c2ccccc2C(=O)c2c1cc(O)c(C(=O)O)c2O` [Munjistin, munjistin], for which, in data set [1] (rat, in vivo, po, 0.82 g/kg), the AUC(0-inf) worked out at 136 ± 21.2 ng·h/mL, the AUC(0-t) stood at 110 ± 20.1 ng·h/mL, the Cmax came to 26.1 ± 6.59 ng/mL and the time of peak concentration (Tmax) was 2.58 ± 0.19 h. Further, the half-life in data set [1] (rat, in vivo, po, 0.82 g/kg) is 9.22 ± 2.75 h. Further, in data set [2] (high QC (211/412/1960 ng/mL)), the “Stability (% RE) Post-Preparative” value is on record as −10.15 % RE, the “Stability (% RE) Short-Term” value turned out to be 7.31 % RE and the “Stability (% RE) Long-Term” value is given as −0.77 % RE. Moreover, in data set [2] (low QC (0.528/1.03/4.90 ng/mL)), the “Stability (% RE) Post-Preparative” value is given as 11.15 % RE, the “Stability (% RE) Short-Term” value worked out at 11.56 % RE and the “Stability (% RE) Long-Term” value was found to be 13.97 % RE. Moreover, in data set [2] (setting [3]), the “Stability (% RE) Post-Preparative” value was 7.04 % RE, the “Stability (% RE) Short-Term” value was found to be 6.73 % RE and the “Stability (% RE) Long-Term” value is 5.56 % RE. In data set [2] (setting [4]), the “Stability (% RE) Three Freeze-Thaw” value is listed as −2.82 % RE. Also, in data set [2] (setting [5]), the “Stability (% RE) Three Freeze-Thaw” value is given as 9.04 % RE. In addition, the “Stability (% RE) Three Freeze-Thaw” value in data set [2] (setting [6]) stood at 9.46 % RE.

With `O=C1c2ccccc2C(=O)c2c(O)c(O)cc(O)c21` [Purpurin, purpurin], in data set [1] (rat, in vivo, po, 0.82 g/kg), the AUC(0-inf) is 243 ± 35.9 ng·h/mL, the AUC(0-t) was found to be 206 ± 36.1 ng·h/mL, the highest concentration (Cmax) is 70.1 ± 11.8 ng/mL and the Tmax was 1.61 ± 0.24 h. In data set [1] (rat, in vivo, po, 0.82 g/kg), this molecule showed a half-life of 9.52 ± 2.68 h. Also, in data set [2] (high QC (211/412/1960 ng/mL)), the “Stability (% RE) Post-Preparative” value is listed as 13.68 % RE, the “Stability (% RE) Short-Term” value worked out at 14.76 % RE and the “Stability (% RE) Long-Term” value was found to be 12.08 % RE. Also, in data set [2] (low QC (0.528/1.03/4.90 ng/mL)), the “Stability (% RE) Post-Preparative” value was −14.02 % RE, the “Stability (% RE) Short-Term” value is −13.38 % RE and the “Stability (% RE) Long-Term” value is on record as −2.59 % RE. Also, in data set [2] (setting [3]), the “Stability (% RE) Post-Preparative” value is on record as −2.00 % RE, the “Stability (% RE) Short-Term” value was −5.35 % RE and the “Stability (% RE) Long-Term” value is recorded as −2.68 % RE. Moreover, the “Stability (% RE) Three Freeze-Thaw” value in data set [2] (setting [4]) was found to be 14.76 % RE. Besides, the “Stability (% RE) Three Freeze-Thaw” value in data set [2] (setting [5]) is recorded as 1.92 % RE. Moreover, the “Stability (% RE) Three Freeze-Thaw” value in data set [2] (setting [6]) is recorded as −5.35 % RE.
